According to patent US8334267B2, “Mangiferin calcium salts, the method for its preparation and its use” (Hainan Deze Drug Research Co., Ltd., priority 2007, dated 2012):

Key:
[1] = Water solubility test in distilled water; settings: for dissolves in 30 minutes: prepared per example 8
Description: 5 mg mangiferin powder which is weighed up accurately is put into 50 ml distilled water, the solution is shaked acutely 30 second every 5 minutes.
100 mg mangiferin calcium powder which is obtained by the method for preparation of example 8 and weighed up accurately is put into 50 ml distilled water, the solution is shaked acutely 30 second every 5 minutes.

GK rats = test: Efficacy in GK model (plasma glucose, insulin, lipids); format: in vivo, Goto-Kakizaki rats (GK)
Description: Rosiglitazone Hydrochloride tablets were purchased from Zhejiang wanma pharmaceutical Co., Ltd. Mangiferin and mangiferin calcium were suspended with 3% sodium carboxymethyl cellulose before use.
Goto-Kakizaki rats (GK) (16 weeks age, ♀ ♂) were purchased from Shanghai SLAC laboratory animal Co., Ltd. The animals were kept in IVC cages with temperature (22° C.). There are two rats in each cage.
Experimental group: GK rats group (n=10); mangiferin groups (20, 40, 80 mg/kg, each 10 rats); mangiferin calcium groups (10, 20, 40 mg/kg, each 10 rats); Rosiglitazone Hydrochloride group [3 mg/kg, n=10]. Test samples or vehicle control was given orally for 30 days. GK rats group were given vehicle.
The blood specimens were taken by abdominal aorta at the end of the test. Plasma glucose (GLU), insulin (INS), triglycerides (TG), total cholesterol (TC), high density lipoprotein (HDL), low density lipoprotein (LDL) were determined
(§1) GLU, TC, TG, HDL and LDL levels were determined using GF-D800 semi-auto chemist which was purchased from Shandong Gaomi Caihong Analytical Instrument Co., Ltd. Insulin: radioimmunoassay (RIA), γ counter counts. insulin RIA Kit was purchased from Shandong Weifang City three-dimensional (3V) Biological company.
Statistics: The results have been calculated as mean±SD ( x±SD) and comparisons of the data have been done by t-test.

[2] = Pharmacokinetics of mangiferin and mangiferin calcium after oral administration; format: in vivo, rats; settings: rats, oral 100 mg/kg
Description: 1, The Confect of Drug Solution
Mangiferin is suspended in Carboxymethyl cellulose sodium solution which concentration is one percent; the mangiferin concentration is 10 mg/mL, which is sample A.
All rats were fasted for 16 hours, free drinking water. The rats are oral administrated separately sample A and sample B, which dose is 100 mg/kg. The rats were taken whole blood in 5 minutes before oral administrated and 15 min, 30 min, 45 min, 60 min, 90 min, 120 min, 180 min, 240 min, 300 min, 360 min, 480 min after oral administrated. Serum is separated from these blood samples.
Serum Samples are extracted accurately 0.2 ml into centrifuge tubes separately; then 40 μL cold trichloroacetic acid solution which concentration is ten percent is added into centrifuge tubes separately. The samples are whorled 3 minutes; then centrifuged 12000 r/min for 10 minutes, 120 μl the up layer solution are extracted from centrifuge tubes and put into sample bottles separately. All the samples are detected by HPLC.
Apparatus: Angilent 1100 HPLC (American Agilent Co.), include G1312A dual pump G1313A Auto-Sampler.
Chromatographic column: discover ODS column (250 mm×6 mm, 5 μm);
The mobile phase: Acetonitrile—0.1% H3PO4 water (13:87 v/v)
Velocity of flow: 1.0 ml/min
Detection Wavelength: 254 nm.
Column temperature: 30° C.

STZ rats = test: Efficacy in STZ model (plasma glucose, insulin, lipids, glucose clamp); format: in vivo, wistar rats; settings: for Glucose infusion rate: glucose clamp; for FFA / GLU / INS / TG: high fat chow
Description: Rosiglitazone Hydrochloride tablets were purchased from Zhejiang wanma pharmaceutical Co., Ltd. Mangiferin and mangiferin calcium salts were suspended with 3% sodium carboxymethyl cellulose.
Normal female wistar rats (SPF, 3 months age, 180-200 g) were purchased from Hainan provincial peoples hospital experimental Animal Center. The animals were kept in a room temperature (25˜28° C.) with free access of food and water. A light-dark cycle (6 a.m and 6 p.m) was strictly enforced. High fat chow is composed of 55% basic chow, 2% protein, 16% fat, 27% white sugar.
Model: After the rats were fasted for 12 hours, the rats are injected 30-35 mg/kg streptozotocin (STZ) solution once by tail vein. STZ solution is prepared to 2% concentration with […], pH 4.4 citrate-sodium citrate buffer before use. The model rats were weighed, taked out tail vein blood, tested blood glucose when the Model is done after 14 days after fasting for 12 hours, then injected 20% glucose solution ([…]) by intraperitoneal, determined blood glucose in 0.5 h, 1 h, 2 h. The rats whose glucose tolerance is abnormal were brought into experiments. Normal wistar rats were fed normal chow, model rats were fed high fat chow.
Experimental group:normal wistar rats group (n=10); after Diabetes model is succeed, the rats were randomly divided into 7 groups: Diabetes model group (n=10); mangiferin groups (20, 40, 80 mg/kg, each 10 rats); mangiferin calcium groups (10, 20, 40 mg/kg, each 10 rats); Rosiglitazone Hydrochloride group [3 mg/kg, n=10]. Test samples or vehicle control was given orally for 8 weeks. Diabetes model group and normal group were given vehicle.
Determination of insulin sensitivity (Glucose infusion rate): Using glucose clamp technique, in accordance with Konglingdong'method ? KONG Ling-dong, ZHU Liang-zheng, SONG Ju-min, etc al. Intervention Effects of Tiaozhi Jiangtang Tablet on Insulin Resistance in Rats with Diabetes Mellitus Type 2.
Determination of plasma glucose and lipid: Rats were taken whole blood after killed, then serum was separated, determined plasma glucose (GLU), insulin (INS), triglycerides (TG) and free fatty acids (FFA).
as §1, with “GLU” for “GLU, TC, TG, HDL”, “TG” for “LDL”, “Ltd. Free fatty acids were determined using copper colorimetric determination. The kits for Determination of free fatty acids were purchased from Nanjing Jiancheng Bioengineering Institute.” for “Ltd.”
Statistics: The results have been calculated as mean±SD ( x±SD) and compareisons of the data have been done by t-test.

[3] = Stability of mangiferin calcium by preparation route; format: physicochemical; settings: mangiferin calcium made by reacting mangiferin with calcium hydroxide; changes much in 2 hours
Description: 3, The water solution of mangiferin calcium which mangiferin reacted with calcium hydroxide is unstable, it changes much in 2 hours. The reaction of mangiferin with other alkaline calcium like calcium bicarbonate or calcium acetate is difficult because they are alkalescent. The productivity is very low.
5, Mangiferin monosodium (or monopotassium) is come into being first; then mangiferin monosodium (or monopotassium) reacts with water-solubility calcium salt, and mangiferin calcium is come into being. The mangiferin calcium which is obtained by this method is stability, and the productivity is high.

## O=c1c2cc(O)c(O)cc2oc2cc([O-])c([C@@H]3O[C@H](CO)[C@@H](O)[C@H](O)[C@H]3O)c(O)c12.O=c1c2cc([O-])c(O)cc2oc2cc(O)c([C@@H]3O[C@H](CO)[C@@H](O)[C@H](O)[C@H]3O)c(O)c12.[Ca+2] [Mangiferin calcium, mangiferin calcium]
[1]; 50 mg powder in 50 ml distilled water
  dissolves in 30 minutes: can dissolve
[1]; 100 mg powder in 50 ml distilled water
  dissolves in 30 minutes: can not dissolve completely
[1]; distilled water, shaken 30 second every 5 minutes, 30 minutes
  water solubility: more than 1 mg/ml
GK rats; 10 mg/kg orally for 30 days
  GLU: 24.06 ± 1.57 mmol/L
  HDL: 0.81 ± 0.07 mmol/L
  INS: 27.48 ± 8.70 μ IU/ml
  LDL: 1.26 ± 0.18 mmol/L
  TC: 2.43 ± 0.21 mmol/L
  TG: 1.79 ± 0.22 mmol/L
  improvement of TC, HDL and LDL in diabetic GK rats: significantly improves
GK rats; 20 mg/kg orally for 30 days
  GLU: 23.34 ± 1.67 mmol/L
  HDL: 0.80 ± 0.10 mmol/L
  INS: 20.45 ± 6.36 μ IU/ml
  LDL: 1.31 ± 0.10 mmol/L
  TC: 2.47 ± 0.08 mmol/L
  TG: 1.60 ± 0.41 mmol/L
  improvement of GLU, TC, TG, HDL and LDL and INS in diabetic GK rats: significantly improves
GK rats; 40 mg/kg orally for 30 days
  GLU: 23.17 ± 1.58 mmol/L
  HDL: 0.80 ± 0.09 mmol/L
  INS: 16.79 ± 5.37 μ IU/ml
  LDL: 1.37 ± 0.11 mmol/L
  TC: 2.49 ± 0.07 mmol/L
  TG: 1.57 ± 0.39 mmol/L
[2]; compared with mangiferin
  bioavailability: better than mangiferin
[2]; serum
  Cmax: 48300 ± 600 ng/mL
  T1/2β: 1.02 ± 0.128 h
STZ rats; 10 mg/kg orally for 8 weeks
  improvement of GLU, TG, FFA, INS, Glucose infusion rate in diabetic rats: significantly improves
  Glucose infusion rate: 17.56 ± 3.45 mg/kg · min
  FFA: 1.54 ± 0.23 µmol/L
  GLU: 8.01 ± 0.32 mmol/L
  INS: 27.63 ± 3.46 μ IU/ml
  TG: 2.49 ± 0.18 mmol/L
STZ rats; 20 mg/kg orally for 8 weeks
  Glucose infusion rate: 24.37 ± 3.75 mg/kg · min
  FFA: 1.28 ± 0.14 µmol/L
  GLU: 7.31 ± 0.22 mmol/L
  INS: 23.57 ± 3.68 μ IU/ml
  TG: 1.93 ± 0.36 mmol/L
STZ rats; 40 mg/kg orally for 8 weeks
  Glucose infusion rate: 26.36 ± 3.58 mg/kg · min
  FFA: 1.13 ± 0.18 µmol/L
  GLU: 6.91 ± 2.02 mmol/L
  INS: 20.53 ± 4.42 μ IU/ml
  TG: 1.49 ± 0.28 mmol/L
[3]
  stability of water solution: unstable
